The text below walks through data of US20190144499A1, “PHENYL P[…], AND MANUFACTURING METHOD AND PHARMACEUTICAL APPLICATION THEREOF” (Jiangsu Hengrui Medicine Co., Ltd., priority 2016, published 2019).

A short description of data set [1]: Pharmacokinetics assay in rats after intravenous administration. It is filed as in vivo. The conditions noted are these: both sexes, Sprague-Dawley, rat, plasma, SD rats, 1 mg/kg. The method, then:
Rats were used as test animals. The drug concentration in plasma at different time points was determined by LC/MS/MS after intravenous administration of the compounds of Examples 2, 5 and 8 to the rats. The pharmacokinetic behavior of the compounds of the present invention was studied and evaluated in SD rats.
12 Sprague-Dawley (SD) rats, half male and half female, were purchased from SINO-BRITISH SIPPR/BK LAB. ANIMAL LTD., CO, with License No.: SOCK (Shanghai) 2008-0016.
The appropriate amount of the test compounds was weighed, and added with 5% 5% DMSO+5% PEG400+90% normal saline successively.
After an overnight fast, 12 SD rats, half male and half female, were divided into 3 groups equally, and administered intravenously at a dose of an administration volume of 5 mL/kg.
In the venous group, blood (0.2 mL) was taken from the orbital sinus before administration and 0.25, 0.5, 1.0, 2.0, 4.0, 8.0, 11.0 and 24.0 hours after administration. The samples were stored in heparinized tubes, and centrifuged for 10 minutes at 3,500 rpm to separate the blood plasma. The plasma samples were stored at −20° C.
The concentration of the test compounds in SD rat plasma after intravenous administration was determined by LC-MS/MS.

Data set [2] has as its target T1, human KOR (h-KOR) receptors (Homo sapiens, UniProt P41145).
T1 construct: expressed in transfected cells
In words: h-KOR agonist activity test (cAMP/CRE-luciferase reporter in HEK293/h-KOR/CRE cells). As to conditions: Forskolin, 4 hours, luciferase chemiluminescence, read-out: EC50 on agonizing h-KOR receptor and affecting cAMP levels. The data set is classed as cell-based. An excerpt: The objective of this experiment is to determine the agonistic effect of the compounds of the present invention on human KOR (h-KOR) receptors, and to evaluate the in vitro activity of the compounds according to the values of EC50.
The compounds of the present invention can activate h-KOR receptor, thereby reducing intracellular cAMP levels. The second messenger cAMP enters the nucleus and binds to the CRE of the DNA, thereby initiating the expression of the downstream luciferase. Luciferase reacts with its substrate to emit fluorescence, and the measured fluorescence signals reflect the agonistic activity of the compounds.
The activity of the test example compounds on agonizing h-KOR and affecting downstream cAMP levels was tested by the following method.
KOR/pcDNA3.1 (+) and CRE/pGL4.29 were transferred into HEK293 cells. G418 and hygromycin were added into the culture medium, and HEK293/KOR/CRE monoclonal cell lines were screened in a 96-well cell culture plate.
HEK293/h-KOR/CRE monoclonal cells were cultured in a DMEM/high glucose medium (10% FBS, 1 mg/ml G418, 200 μg/ml hygromycin, mixed uniformly), and passaged every 3 days. On the day of the experiment, a cell suspension was prepared with a fresh cell medium, added to a 96 well plate (BD, #356692) with 20,000 cells/well, and incubated in 5% CO2 at 37° C. On the second day, the compound was dissolved in pure DMSO at a concentration of 20 mM, then formulated with DMSO to a first concentration of 200 nM and diluted in 3 fold concentration gradient to 8 concentrations. 90 μl of DMSO were added to blank and control wells. The compound solution was diluted 20-fold with DMEM/hyperglucose (SH30243.01B, Hyclone) medium containing […]. The cell culture plates inoculated on the first day were taken out, and 10 μl of the diluted drug or the control (0.5% DMSO) was added to each well. The plate was gently shaken, and placed at 37° C. for 4 hours. In a 96-well cell culture plate, 100 μl of luciferase assay solution (Promega, # E6110) was added to each well. The plate was placed for 5 minutes at room temperature. The chemiluminescence value was measured using Victor 3.0. The EC50 values of the compounds were calculated using Graphpad Prism software based on each concentration of the compound and the corresponding signal value.
The activity of the compounds of the present invention on agonizing h-KOR and affecting downstream cAMP levels was determined by the above test, and the EC50 values are shown in Table 1.1.

Data set [3] relates to carrageenan inflammatory pain model in rats. In words: Carrageenan-induced inflammatory pain in rats, plantar tenderness test (electronic Von Frey). As to conditions: for threshold of tenderness: 30 minutes before detection, 4 hours after carrageenan, model group 7.6 g, blank control about 20 g. The data set is classed as in vivo, Wistar rats. The method, then: A carrageenan inflammatory pain model in rats was established to evaluate the therapeutic effect of KOR agonists on inflammatory pain in rats.
Male Wistar rats were purchased from Shanghai Slac Laboratory Animal Co., Ltd. (Shanghai, China, Certificate No. 2015000513408, License No. SCXK (Shanghai) 2012-0002). The rats were 150-180 g, and fed at 5/cage, in a condition of 12/12 hours light/dark cycle adjustment, constant temperature of 23±1° C., humidity of 50˜60%, and free access to food and water. After purchase, the animals adapted to this condition for 7 days before the experiment was started.
1% λ-Carrageenan was placed in physiological saline, and stirred overnight to form a jelly-like suspension.
The experimental method was modified in accordance with the method of Document 1 (Kazunari Nakao et al.). Before inflammatory pain experiment, rats were randomly divided into the following groups according to body weight: blank control group, model group, Example 5-0.1 mg/kg group, and Example 5-0.3 mg/kg group. There were 8 rats in each group. Inflammatory pain model was made in Wistar rat footpads that were subcutaneously injected with 1% carrageenan (100 μl). After 4 hours, the rats were subjected to a plantar tenderness test to evaluate the mechanical pain threshold. Single tail vein administration of the drug (1 ml/kg) was carried out 30 minutes before detection, and the control group and the model group were given corresponding solvents.
Electronic Von Frey: UGO BASILE, type 38450.
The experimental data were expressed as mean±standard deviation (S.D.). Statistical comparisons were performed using the excel software t test.

A short description of data set [4]: Pharmacokinetics assay in dogs after intravenous administration. The conditions noted are these: male, dog, plasma, Beagle dogs, 0.3 mg/kg. It is filed as in vivo. The method, then:
Beagle dogs were used as test animals. The drug concentration in plasma at different time points was determined by LC/MS/MS after intravenous administration of the compound of Example 5 to the Beagle dogs. The pharmacokinetic behavior of the compound of the present invention was studied and evaluated in Beagle dogs.
3 Beagle dogs in one group, male, were purchased from Medicilon Pharmaceutical Technology (Shanghai) Co., Ltd.
The appropriate amount of the test compound was weighed, and added with 100% normal saline.
After an overnight fast, 3 Beagle dogs in one group, male, were administered intravenously at a dose of an administration volume of 2 mL/kg.
In the venous group, blood (1 mL) was taken from the jugular vein before administration and 5 minutes, 15 minutes, 0.5, 1.0, 2.0, 4.0, 8.0, 12.0 and 24.0 hours after administration. The samples were stored in heparinized tubes, and centrifuged for 10 minutes at 3,500 rpm to separate the blood plasma. The plasma samples were stored at −80° C.
The concentration of the test compound in Beagle dog plasma after intravenous administration was determined by LC-MS/MS.

The mark [5] stands for this setting: read-out: Apparent Distribution Volume Vz.
[6] abbreviates: read-out: Half-Life t1/2 (converted).
Where [7] appears, read: read-out: Mean Residence Time MRT.

T1 sequence (P41145 whole entry): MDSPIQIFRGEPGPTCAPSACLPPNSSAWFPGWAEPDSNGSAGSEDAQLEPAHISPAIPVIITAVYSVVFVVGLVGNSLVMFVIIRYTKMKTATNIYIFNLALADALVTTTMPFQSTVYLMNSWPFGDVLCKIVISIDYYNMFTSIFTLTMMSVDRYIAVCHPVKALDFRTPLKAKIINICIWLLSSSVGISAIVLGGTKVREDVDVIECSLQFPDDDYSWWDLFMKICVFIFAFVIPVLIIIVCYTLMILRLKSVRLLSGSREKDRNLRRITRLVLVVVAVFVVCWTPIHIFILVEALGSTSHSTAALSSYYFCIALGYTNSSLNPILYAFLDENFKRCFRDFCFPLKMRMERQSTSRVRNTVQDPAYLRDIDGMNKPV

With `CC(C)C[C@@H](NC(=O)[C@@H](Cc1ccccc1)NC(=O)CNC[C@H](C)c1ccccc1)C(=O)N[C@H](CCCCN)C(=O)N1CCC(N)(C(=O)O)CC1` [Example 5, 4-amino-1-((2R,5R,8R,14R)-2-(4-aminobutyl)-8-benzyl-5-isobutyl-4,7,10-trioxo-14-phenyl-3,6,9,12-tetraazapentadecan-1-oyl)piperidine-4-carboxylic Acid], the Vd in data set [1] (setting [5]) was found to be 0.41 ± 0.112 L/kg; in data set [4] (setting [5]) it was 0.296 ± 0.019 L/kg. Also, the AUC was found to be 1.7 ± 0.363 µg·h/mL in data set [1] (read-out: Area Under Curve AUC) and 1.98 ± 0.165 µg·h/mL in data set [4] (read-out: Area Under Curve AUC). The results for the clearance in data set [1] (read-out: Clearance CL) and in data set [4] (read-out: Clearance CL) were 0.606 ± 0.108 L/h/kg and 0.152 ± 0.0126 L/h/kg, respectively. The half-life in data set [1] (setting [6]) was 28.1 ± 5.52 min; in data set [4] (setting [6]), 80.4 ± 2.4 min. Moreover, the figures for the MRT in data set [1] (setting [7]) and in data set [4] (setting [7]) were 33.4 ± 7.44 min and 85.8 ± 4.8 min, respectively. The EC50 in data set [2] was 1 pM. Moreover, the “increase of threshold of tenderness compared with the model group” value in data set [3] (0.1 mg/kg i.v. once) stood at 79.5%; in data set [3] (0.3 mg/kg i.v. once) it was 204.5%. The threshold of tenderness stood at 13.7 g in data set [3] (0.1 mg/kg i.v. once) and 23.2 g in data set [3] (0.3 mg/kg i.v. once).

For orientation: AUC means the area under the concentration-time curve, a measure of exposure. By clearance is commonly meant a measure of how efficiently the substance is removed, as volume per time. Usually MRT stands for the average time that molecules of a dose stay in the body. Usually EC50 stands for the concentration giving half of the maximal effect.
